# From PubChem BioAssay AID258 (DTP/NCI, 2004)
# Where “and” joins values, the source holds several entries; their conditions need not be identical. Identical values can stand only once. Inconclusive results and toxic doses are left out.
# System: CD2F1 mice, L1210 leukemia sc, survival T/C
# Assay: NCI In Vivo Anticancer Drug Screen. Data for tumor model L1210 Leukemia (subcutaneous) in CD2F1 (CDF1) mice
# Details: endpoint: median survival time, higher = longer survival
# How it was run: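 Read-out: survival or tumor size. Value = treated (T) / vehicle control (C). Transplantable tumor in mice.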
smiles,measurement,setting,value
OC(CBr)C(O)C(O)C(O)CBr (stereo unspecified),T/C,"dose: 40.0 mg/kg/injection, schedule: Q01DX009 (ip), vehicle: saline",103 % of control
same,T/C,"dose: 40.0 mg/kg/injection, schedule: Q01DX009 (sc), vehicle: saline + alcohol",105 % of control
same,T/C,"dose: 40.0 mg/kg/injection, schedule: Q01DX009 (sc), vehicle: saline with Tween-80",103 % of control
same,T/C,"dose: 80.0 mg/kg/injection, schedule: Q01DX009 (ip), vehicle: saline",113 % of control
same,T/C,"dose: 80.0 mg/kg/injection, schedule: Q01DX009 (sc), vehicle: saline + alcohol",116 % of control
same,T/C,"dose: 100.0 mg/kg/injection, schedule: Q01DX009 (ip), vehicle: saline with Tween-80",100 % of control
same,T/C,"dose: 100.0 mg/kg/injection, schedule: Q01DX009 (sc), vehicle: saline with Tween-80",103 % of control
same,T/C,"dose: 108.0 mg/kg/injection, schedule: Q01DX Z (sc), vehicle: carboxymethylcellulose (CMC)",100 % of control
same,T/C,"dose: 160.0 mg/kg/injection, schedule: Q01DX009 (sc), vehicle: saline + alcohol",121 % of control
same,T/C,"dose: 160.0 mg/kg/injection, schedule: Q01DX009 (sc), vehicle: saline with Tween-80",103 % of control
same,T/C,"dose: 200.0 mg/kg/injection, schedule: Q01DX009 (ip), vehicle: saline with Tween-80",103 % of control
same,T/C,"dose: 200.0 mg/kg/injection, schedule: Q01DX009 (sc), vehicle: saline with Tween-80",102 % of control
same,T/C,"dose: 240.0 mg/kg/injection, schedule: Q01DX009 (ip), vehicle: saline with Tween-80",124 % of control
same,T/C,"dose: 300.0 mg/kg/injection, schedule: Q01DX Z (sc), vehicle: carboxymethylcellulose (CMC)",100 % of control
same,T/C,"dose: 320.0 mg/kg/injection, schedule: Q01DX009 (sc), vehicle: saline with Tween-80",109 % of control
same,T/C,"dose: 400.0 mg/kg/injection, schedule: Q01DX009 (ip), vehicle: saline with Tween-80",103 % of control
same,T/C,"dose: 400.0 mg/kg/injection, schedule: Q01DX009 (sc), vehicle: saline with Tween-80",110 % of control
same,T/C,"dose: 480.0 mg/kg/injection, schedule: Q01DX009 (ip), vehicle: saline with Tween-80",88 % of control
same,T/C,"dose: 500.0 mg/kg/injection, schedule: Q01DX Z (sc), vehicle: carboxymethylcellulose (CMC)",100 % of control
same,T/C,"dose: 640.0 mg/kg/injection, schedule: Q01DX009 (ip), vehicle: saline with Tween-80",93 % of control
same,T/C,"dose: 640.0 mg/kg/injection, schedule: Q01DX009 (sc), vehicle: saline with Tween-80",104 % of control
same,T/C,"dose: 800.0 mg/kg/injection, schedule: Q01DX009 (ip), vehicle: saline with Tween-80",98 % of control
same,T/C,"dose: 800.0 mg/kg/injection, schedule: Q01DX009 (sc), vehicle: saline with Tween-80",111 % of control
same,T/C,"dose: 960.0 mg/kg/injection, schedule: Q01DX009 (ip), vehicle: saline with Tween-80",96 % of control
COc1cccc2c1C(=O)c1c(O)c3c(c(O)c1C2=O)CC(O)(C(C)=O)CC3OC1CC(N)C(O)C(C)O1 (stereo unspecified),T/C,"dose: 2.9 mg/kg/injection, schedule: Q01DX009 (ip), vehicle: saline",96 % of control
same,T/C,"dose: 5.8 mg/kg/injection, schedule: Q01DX009 (ip), vehicle: saline",96 % of control
same,T/C,"dose: 11.7 mg/kg/injection, schedule: Q01DX009 (ip), vehicle: saline",98 % of control
same,T/C,"dose: 23.4 mg/kg/injection, schedule: Q01DX009 (ip), vehicle: saline",103 % of control
same,T/C,"dose: 46.8 mg/kg/injection, schedule: Q01DX009 (ip), vehicle: saline",108 % of control
O=C1NC(=O)C2C3C=CC(C12)C1C2C(=O)NC(=O)C2C31 (stereo unspecified),T/C,"dose: 3.0 mg/kg/injection, schedule: Q01DX005 (iv), vehicle: other",108 % of control
same,T/C,"dose: 6.0 mg/kg/injection, schedule: Q01DX005 (ip), vehicle: other",111 % of control
same,T/C,"dose: 6.0 mg/kg/injection, schedule: Q01DX005 (iv), vehicle: other",104 % of control
same,T/C,"dose: 6.0 mg/kg/injection, schedule: Q01DX005 (sc), vehicle: other",105 % of control
same,T/C,"dose: 12.0 mg/kg/injection, schedule: Q01DX005 (ip), vehicle: other",104 % of control
same,T/C,"dose: 12.0 mg/kg/injection, schedule: Q01DX005 (iv), vehicle: other",104 % of control and 107 % of control
same,T/C,"dose: 12.0 mg/kg/injection, schedule: Q01DX005 (sc), vehicle: other",108 % of control
same,T/C,"dose: 12.0 mg/kg/injection, schedule: Q01DX009 (ip), vehicle: other",115 % of control
same,T/C,"dose: 14.0 mg/kg/injection, schedule: Q01DX009 (ip), vehicle: water",110 % of control
same,T/C,"dose: 17.2 mg/kg/injection, schedule: Q01DX005 (iv), vehicle: other",107 % of control
same,T/C,"dose: 17.2 mg/kg/injection, schedule: Q01DX009 (ip), vehicle: other",122 % of control
same,T/C,"dose: 18.0 mg/kg/injection, schedule: Q01DX009 (ip), vehicle: clinical formulation",121 % of control
same,T/C,"dose: 24.5 mg/kg/injection, schedule: Q01DX005 (iv), vehicle: other",110 % of control
same,T/C,"dose: 25.0 mg/kg/injection, schedule: Q01DX005 (ip), vehicle: other",113 % of control
same,T/C,"dose: 25.0 mg/kg/injection, schedule: Q01DX005 (ip), vehicle: saline with Tween-80",105 % of control
same,T/C,"dose: 25.0 mg/kg/injection, schedule: Q01DX005 (sc), vehicle: other",114 % of control
same,T/C,"dose: 30.0 mg/kg/injection, schedule: Q01DX009 (ip), vehicle: clinical formulation",150 % of control
same,T/C,"dose: 38.9 mg/kg/injection, schedule: Q01DX009 (ip), vehicle: water",203 % of control
same,T/C,"dose: 50.0 mg/kg/injection, schedule: Q01DX005 (ip), vehicle: other",164 % of control
same,T/C,"dose: 50.0 mg/kg/injection, schedule: Q01DX005 (iv), vehicle: other",160 % of control and 175 % of control
same,T/C,"dose: 50.0 mg/kg/injection, schedule: Q01DX005 (oral), vehicle: other",105 % of control
same,T/C,"dose: 50.0 mg/kg/injection, schedule: Q01DX005 (sc), vehicle: other",152 % of control
same,T/C,"dose: 50.0 mg/kg/injection, schedule: Q01DX009 (ip), vehicle: clinical formulation",192 % of control
same,T/C,"dose: 50.0 mg/kg/injection, schedule: Q01DX009 (ip), vehicle: other",166 % of control
same,T/C,"dose: 64.8 mg/kg/injection, schedule: Q01DX009 (ip), vehicle: water",291 % of control
same,T/C,"dose: 71.4 mg/kg/injection, schedule: Q01DX005 (iv), vehicle: other",247 % of control
same,T/C,"dose: 71.4 mg/kg/injection, schedule: Q01DX009 (ip), vehicle: other",250 % of control
same,T/C,"dose: 83.3 mg/kg/injection, schedule: Q01DX009 (ip), vehicle: clinical formulation",106 % of control
same,T/C,"dose: 100.0 mg/kg/injection, schedule: Q01DX005 (ip), vehicle: saline with Tween-80",204 % of control
same,T/C,"dose: 100.0 mg/kg/injection, schedule: Q01DX005 (oral), vehicle: other",108 % of control
same,T/C,"dose: 100.0 mg/kg/injection, schedule: Q01DX005 (sc), vehicle: other",89 % of control
same,T/C,"dose: 200.0 mg/kg/injection, schedule: Q01DX005 (oral), vehicle: other",113 % of control
same,T/C,"dose: 252.0 mg/kg/injection, schedule: Q01DX009 (oral), vehicle: other",171 % of control
same,T/C,"dose: 378.0 mg/kg/injection, schedule: Q01DX009 (oral), vehicle: other",162 % of control
same,T/C,"dose: 400.0 mg/kg/injection, schedule: Q01DX005 (oral), vehicle: other",108 % of control
same,T/C,"dose: 800.0 mg/kg/injection, schedule: Q01DX005 (oral), vehicle: other",229 % of control
same,T/C,"dose: 850.0 mg/kg/injection, schedule: Q01DX009 (oral), vehicle: other",182 % of control
same,T/C,"dose: 1274.0 mg/kg/injection, schedule: Q01DX009 (oral), vehicle: other",225 % of control
CCN=c1cc2oc3cc(NCC)c(C)cc3c(-c3ccccc3C(=O)OCC)c-2cc1C,T/C,"dose: 0.63 mg/kg/injection, schedule: Q01DX009 (ip), vehicle: water",102 % of control
same,T/C,"dose: 0.63 mg/kg/injection, schedule: Q01DX009 (sc), vehicle: water",100 % of control
same,T/C,"dose: 1.25 mg/kg/injection, schedule: Q01DX009 (ip), vehicle: water",96 % of control
same,T/C,"dose: 1.25 mg/kg/injection, schedule: Q01DX009 (sc), vehicle: water",104 % of control and 97 % of control
same,T/C,"dose: 2.5 mg/kg/injection, schedule: Q01DX009 (sc), vehicle: water",105 % of control
same,T/C,"dose: 5.0 mg/kg/injection, schedule: Q01DX009 (sc), vehicle: water",104 % of control
CO[C@@]12[C@H](COC(N)=O)C3=C(C(=O)C(C)=C(N)C3=O)N1C[C@@H]1N[C@@H]12,T/C,"dose: 0.7 mg/kg/injection, schedule: Q01DX Z (sc), vehicle: saline",100 % of control
same,T/C,"dose: 1.17 mg/kg/injection, schedule: Q01DX Z (sc), vehicle: saline",100 % of control
same,T/C,"dose: 1.95 mg/kg/injection, schedule: Q01DX Z (sc), vehicle: saline",100 % of control
same,T/C,"dose: 3.25 mg/kg/injection, schedule: Q01DX Z (sc), vehicle: saline",108 % of control
same,T/C,"dose: 9.03 mg/kg/injection, schedule: Q01DX Z (sc), vehicle: saline",116 % of control
N#CC(c1ccccc1)c1cccc2ccccc12 (stereo unspecified),T/C,"dose: 23.0 mg/kg/injection, schedule: Q01DX Z (sc), vehicle: methylcellulose (MC)",109 % of control
same,T/C,"dose: 39.0 mg/kg/injection, schedule: Q01DX Z (sc), vehicle: methylcellulose (MC)",119 % of control
same,T/C,"dose: 65.0 mg/kg/injection, schedule: Q01DX Z (sc), vehicle: methylcellulose (MC)",152 % of control
